Experimental data reported in article PMC9563435, “Comparison of Different Clinical Chemotherapeutical Agents’ Toxicity and Cell Response on Mesenchymal Stem Cells and Cancer Cells” (Cells, 2022).
“Also recorded” adds a separate entry of the source. Structures can show the parent of a compound that is named as a salt.

How the values were obtained:
Type in all cases: cell-based, human
Ad-MSC 3 cells = experiment: Apoptosis assay (Annexin V / TO-PRO-3 flow cytometry), Ad-MSC 3; settings: several concentrations; data not shown
Experimental: Apoptosis detection was based on the Annexin-V molecule binding to phosphatidylserine membrane molecules. Two cell lines were used to study apoptosis: Ad-MSC 3 cells were plated in a 5 × 10^4 cells/well concentration, while 4 × 10^4/well A431-mCh were seeded into each well in a 12-well tissue culture plate. […] At day 5, cells were trypsinized and centrifuged, while the supernatant was also collected and combined with the detached cells to include all already dead cells. Cells were washed twice with 500 µL of 1% BSA-PBS (bovine serum albumin dissolved in PBS, A8022, Sigma-Aldrich, St. Louis, MO, USA) solution and centrifuged at 400× G for 4 min. Cells were resuspended in 100 µL of 1× Annexin Binding Buffer (422201, Biolegend, San Diego, CA, USA), and 3 µL of Annexin V-Pacific Blue (A35122, Biolegend, San Diego, CA, USA) and 1 µL of TO-PRO-3 (R37170, Invitrogen, Waltham, MA, USA) were added to each sample. After 15 min of incubation, labeled and non-labeled samples were diluted 5-fold with 1× Annexin Binding Buffer and analyzed by Attune™ NxT flow cytometer.

[1] = system: 6 MSCs and 3 cancer cell lines; experiment: Cytotoxicity / cell viability assay (PrestoBlue), panel of MSCs and cancer cell lines; settings: for drug sensitivity of MSCs compared with cancer cells (in words): IC50 comparison
Experimental: (§1) Cells were seeded in a 96-well tissue culture plate in 100 µL of medium. Ad-MSC-GFP 1, iAd-MSC-GFP 1, Ad-MSC-GFP 2, Ad-MSC-GFP 3, BM-MSC, and HFF were seeded at 5 × 10^3/100 µL/well density and A431-mCh, MES-SA-mCh, and MCF-7-GFP at 4 × 10^3 cells/100 µL/well concentration in DMEM-F12 media. Different initial cell numbers were used due to different proliferation rates of different cell types. Cells were allowed to attach overnight at 37 °C and the day after were treated with the drugs using the indicated concentrations in 100 µL. Cell viability was measured by using PrestoBlue™ Cell Viability Reagent (A13232, Invitrogen, Waltham, MA, USA). To address metabolic differences between cancer cells and MSCs, the assay was optimized for each cell line, cells were incubated with 5 or 12.5% PrestoBlue™ Cell Viability Reagent diluted in PBS at 37 °C/5% CO2 for 1–1.5 h 5 days after the treatment. The fluorescence signal was measured by an EnSpire (Perkin Elmer, Waltham, MA, USA) fluorometer at 555 nm (excitation)/585 nm (emission) wavelength.
After the incubation period, the relative fluorescence data was measured. The data was normalized with the fluorescence of blank samples (cell culture media). A sigmoidal dose–response curve was fitted to the normalized measurement data and the logarithm of the concentration using the least square method. An inhibitory concentration of 50% (IC50 and log10) was interpolated from the fitted graph. […] In these cases, IC50 was calculated from the line connecting the measurement points. For repeated measurements, average and standard deviation was calculated based on the logarithm of the IC50 values.
To compare the mean IC50 values of six mesenchymal stem cell lines (Group-1) and three cancer cell lines (Group-2), first an F-test was performed to check equal variances between the groups, then two-sample unpaired t-tests were performed to calculate significance using Microsoft® Excel® 2016 (16.0.4266.1001).

A431-mCh cells = experiment: Cytotoxicity / cell viability assay (PrestoBlue) on A431; settings: compared with the other cell lines
Experimental: as §1
After the incubation period, the relative fluorescence data was measured. The data was normalized with the fluorescence of blank samples (cell culture media). […] In these cases, IC50 was calculated from the line connecting the measurement points. For repeated measurements, average and standard deviation was calculated based on the logarithm of the IC50 values.

Structure (SMILES)	apoptosis induction in MSCs (in words) (Ad-MSC 3 cells)	drug sensitivity of MSCs compared with cancer cells (in words) ([1]; 5 days treatment)	other results
CN[C@@H]1C[C@H]2O[C@@](C)([C@@H]1OC)n1c3ccccc3c3c4c(c5c6ccccc6n2c5c31)C(=O)NC4 [staurosporine]	not able to induce apoptosis		
OO [H2O2]	not able to induce apoptosis		
CCc1c2c(nc3ccc(OC(=O)N4CCC(N5CCCCC5)CC4)cc13)-c1cc3c(c(=O)n1C2)COC(=O)[C@]3(O)CC [irinotecan, irinotecan hydrochloride]		required significantly higher concentrations to kill MSCs than cancer cells	
[Cl][Co][Cl] [cobalt chloride]	not able to induce apoptosis		
CN(Cc1cnc2nc(N)nc(N)c2n1)c1ccc(C(=O)N[C@@H](CCC(=O)O)C(=O)O)cc1 [methotrexate]		only toxic to A431-mCherry cells	sensitivity of A431 cells (in words) (A431-mCh cells): extreme sensitivity; also recorded: hypersensitive
O=C1c2c(O)ccc(O)c2C(=O)c2c(NCCNCCO)ccc(NCCNCCO)c21 [mitoxantrone]	not able to induce apoptosis	required significantly higher concentrations to kill MSCs than cancer cells	
CC[C@]1(O)C[C@@H]2CN(CCc3c([nH]c4ccccc34)[C@@](C(=O)OC)(c3cc4c(cc3OC)N(C)[C@H]3[C@@](O)(C(=O)OC)[C@H](OC(C)=O)[C@]5(CC)C=CCN6CC[C@]43[C@@H]65)C2)C1 [vinblastine]		required significantly higher concentrations to kill MSCs than cancer cells	IC50 values in MSCs relative to cancer cells ([1]; 5 days treatment, MSCs higher than cancer cells): 1000 fold
Cn1nnc2c(C(N)=O)ncn2c1=O [temozolomide]			IC50 ([1]; Homo sapiens, all cell lines of the screening, read-out: toxic concentration in the IC50 screening (not toxic even at)): > 1 mM
c1ccc(CN(CCN(Cc2ccccn2)Cc2ccccn2)Cc2ccccn2)nc1 [TPEN]		equally toxic to both MSCs and cancer cells	
